From patent US11246949B2, “Imaging contrast agents and uses thereof” (The Research Foundation for The State University of New York, priority 2011, dated 2022)

Key:
[1] = Ascorbate consumption (redox cycling, reactive oxygen species generation); settings: 100 μM ascorbate, 10 μM Fe(II), 10 μM ligand, 10 mM HEPES, pH 7.4, 37° C.
[2] = Dissociation of the metal ion complex (kinetic inertness); format: physicochemical
[3] = Persistence of high spin Fe(II) oxidation state in aqueous solution (1H NMR, μeff); format: physicochemical; settings: atmospheric oxygen, several days
Procedure: Effective magnetic moments are characteristic of high spin Fe(II) at 5.1 BM and 5.8 BM for Fe(L1) and Fe(L2), These were measured in 100 mM NaCl in D2O, pH 7.4, and D2O at pH 7.0, respectively. The ^1H NMR spectra of the two complexes show highly shifted proton resonances (FIGS. 4-5). There are nine non-exchangeable proton resonances for Fe(L2) consistent with trigonal prismatic geometry as observed previously for Fe(L3) and three sets of four chemically inequivalent proton resonances in the macrocycle backbone. […] The exchangeable amide and amine protons were identified by comparison of the ^1H NMR spectra of the complexes in H2O and […]. For Fe(L1), the amide protons are highly shifted downfield, appearing at 77 ppm. The amine protons of Fe(L2) are only slightly shifted and are observed at 11 ppm.
Generally, macrocyclic complexes in FIG. 1 are prepared from the macrocycle and Fe(II) salt such as FeCl2, or Fe(CF3SO3)2 in acetonitrile at room temperature with argon bubbled through the solvent. This helps to ensure that a negligible amount of O2 is present in the reaction flask. In the absence of an inert atmosphere, difficulties in maintaining the desired oxidation state may arise through mechanisms such as oxidation of the metal to Fe(III) prior to complexation with the ligand. […]

[4] = pH-potentiometric titrations: acid-dissociation and ligand-Fe(II) equilibrium constants; format: physicochemical; settings: for formation constant log K (binding of macrocycle to metal ion): 100 mM NaCl
Procedure: FIG. 10. Representative pH-potentiometric titrations for Fe(L1) and Fe(L3) in 100 mM NaCl at 25° C.
Fe(II) paraCEST agents were developed by preparing ligands that stabilize Fe(II) and Ni(II), contain multiple exchangeable protons to enhance the CEST effect and form six or eight coordinate complexes to protect the Fe(II) from binding additional ligands that might complicate the CEST signal. The sexadentate ligands contained the macrocycle, 1,4,7-triazacyclononane, with three pendent groups while the octadentate ligands contained 1,4,7,10-tetraazacyclododecane and four pendent groups (FIG. 1 and FIG. 2). Pyridine pendent groups stabilize Fe(II) relative to Fe(III) (L2, L3), and amide pendent groups are stabilizing of Fe(II) (L1). For example, the pyridine groups in Fe(L3) lead to a high reduction potential of +930 mV vs. NHE. Amide groups contain exchangeable protons and have been commonly used as a basis for Ln(III) paraCEST agents. In contrast, amino pyridine pendent groups and the benzimidazole groups have exchangeable protons that are one bond further away from the Fe-coordinated nitrogen of the pyridine ring. Exchangeable protons close to the Fe(II) center as well as more remotely located protons appended to a ligand pi-system have been studied in this work in order to capitalize on both the dipolar and contact shift contributions of paramagnetic Fe(II). The strategy of using exchangeable protons that are remote from the metal ion center was explored in order to capitalize on both the dipolar and contact shift contributions of paramagnetic Fe(II). Fe(II) complexes were prepared in acetonitrile or in aqueous solution by simple addition of the free base form of the ligands to Fe(CF3SO3)2.

[5] = Electrochemical potential E° vs. NHE; format: physicochemical; settings: 100 mM tetrabutylammonium hexafluorophosphate in acetonitrile
Description: In an embodiment, the compounds of the invention are stable towards chemical reaction in an oxidative environment (i.e., in the presence of biologically relevant concentrations of peroxide or oxygen). In an embodiment, the stability in an oxidative environment can be related to the reduction potential of the complex. In an embodiment, the compounds of the present invention have a reduction potential greater than 600 mV vs. NHE (Normal Hydrogen Electrode) as shown in Table 1. Generally, the compounds of the invention have a reduction potential above 800 mV vs. NHE.

SMILES | resistance to dissociation >12 h, neutral pH [2] | formation constant log K (binding of macrocycle to metal ion) [4] | E° vs. NHE [5] [mV] | Ascorbate consumption [1] | also measured
NC(=O)CN1CCN(CC(N)=O)CCN(CC(N)=O)CC1.[Fe+2] [Fe(L1)] | Moderate | 13.5 | 860 ± 9 | 7.2 ± 0.96 ×10^−5 (s^−1) | % dissociation over 12 hours ([2]; 12 hours): <9%; resistance to oxidation to Fe(III) [3]: resistant to oxidation to Fe(III); Log K1 ([4]; K1 = [LH+]/([L][H+]), 1.05 mM L, 1.0 mM Fe(OTf)2, 0.10 M NaCl, 25° C.): 10.19 ± 0.11; Log K2 ([4]; K2 = [LH2 2+]/([LH+][H+]), 0.10 M NaCl, 25° C.): <2; Log K3 ([4]; K3 = [LH3 3+]/([LH2 2+][H+]), 0.10 M NaCl, 25° C.): <2; Log K Fe-L ([4]; KFeL = [FeL2+]/([Fe2+][L]), 0.10 M NaCl, 25° C.): 13.47 ± 0.25; Log K FeL-OH ([4]; KFeL-OH = [FeL-OH+]/([FeL2+][OH−]), 0.10 M NaCl, 25° C.): 9.43 ± 0.18; Log K Fe-LH ([4]; KFeLH = [FeLH3+]/([FeL2+][H+]), 0.10 M NaCl, 25° C.): 5.54 ± 0.14
O=C([O-])CN(CCN(CC(=O)[O-])CC(=O)[O-])CC(=O)[O-].[Fe+3] [Fe(EDTA), reference compound] |  |  | 390 | 77 ± 13 ×10^−5 (s^−1) | 
NC(=O)CN1CCN(CC(N)=O)CCN(CC(N)=O)CCN(CC(N)=O)CC1.[Fe+2] [Fe(L4)] | excellent | 7.5 | 800 ± 5 | 4.0 ± 1.0 ×10^−5 (s^−1) | % dissociation over 12 hours ([2]; 12 hours): 0%; dissociation after incubation ([2]; 12 hours, 37° C., pH 4 or neutral pH with five equivalents of CuCl2 or ZnCl2): no dissociation
Cc1nc(CN2CCN(Cc3ccc(N)c(C)n3)CCN(Cc3ccc(N)c(C)n3)CC2)ccc1N.[Fe+2] [Fe(L2)] | good |  |  |  | resistance to oxidation to Fe(III) [3]: resistant to oxidation to Fe(III)
CC(O)CN1CCN(CC(C)O)CCN(CC(C)O)CCN(CC(C)O)CC1.[Fe+2] (centres unmarked) [Fe(L6)] | Moderate | 9.3 |  |  | 
[Fe+2].c1ccc2[nH]c(CN3CCN(Cc4nc5ccccc5[nH]4)CCN(Cc4nc5ccccc5[nH]4)CC3)nc2c1 [Fe(L5)] | moderate |  |  |  | 

Further lines, with some results ahead:

resistance to dissociation >12 h, neutral pH [2] | formation constant log K (binding of macrocycle to metal ion) [4] | E° vs. NHE [5] [mV] | SMILES | Ascorbate consumption [1] | also measured
good |  |  | NC(=O)CN1CCN(CC(N)=O)CCN(CC(N)=O)CC1.[Ni+2] [Ni(L1)] |  | inertness towards dissociation in solution ([2]; neutral and acidic pH, at least 24 hours): inert towards dissociation
moderate |  |  | CC(O)CN1CCNCCN(CC(C)O)CCNCC1.[Fe+2] (centres unmarked) [Fe(L7)] |  | 
good |  |  | Nc1cccc(CN2CCN(Cc3cccc(N)n3)CCN(Cc3cccc(N)n3)CC2)n1.[Fe+2] [Fe(L8)] |  | 
